Measured values as given in US9011853B2, “B7-H4 fusion proteins and methods of use thereof” (Amplimmune, Inc., priority 2009, dated 2015).
“And” between values parts separate entries of the source, which are not always exact repeats. Equal values may be shown once. “Also recorded” adds a separate entry of the source.

How the values were obtained:
DBA/1 mice = experiment: Therapeutic CIA study AA#79 (female mice), disease score; format: in vivo, mouse
Description: DBA/1 mice (10 per group) aged 7-9 weeks were used for the CIA model. Mice from several vendors (Jackson Laboratories, Harlan Laboratories, and Taconic Farms) were tested and it was determined that Taconic mice are most appropriate for the CIA studies. Taconic mice develop more consistent and severe disease symptoms and show continued disease progression, while mice from the other vendors often show stable, less severe disease, even in the absence of treatment. female (F) mice in AA#79 and male (M) mice in AA#80, were tested to determine which gender to use in future experiments.
On the day before the study is initiated, the hair on the right flank of each mouse was removed using an electric clipper. A metal identification tag was placed on the right ear of each mouse. On Day 0, mice were immunized with 100 μL of chicken collagen type II/Complete Freund's Adjuvant (CII/CFA) emulsion in the right flank. On Day 20, the hair on the left flank of each mouse was removed using an electric clipper, and on Day 21, mice were immunized with 100 μL of chicken collagen type II/Incomplete Freund's Adjuvant (CII/IFA) emulsion in the left flank. Pre-filled syringes of CII/CFA and CII/IFA emulsion purchased from Hooke Laboratories were used to ensure consistent dosing with and potency of the immunogen.
Early arthritis symptoms, such as erythema and mild swelling, usually appear on Day 21, and on Day 28, more severe symptoms such as swelling in many digits and inflammation extending to the tarsal joint are typically present. Each limb is evaluated for severity of arthritis symptoms three times a week using a widely accepted arthritis severity score system, shown in Table 2. The scores from each of the 4 limbs are summed to yield the disease score of each mouse. […]
Treatment was initiated when the average disease score for the study animals was greater than four. This corresponded to Day 29 in AA#79 and Day 24 in […]. By waiting until animals are symptomatic, it was ensured that the model is performed in a therapeutic rather than prophylactic mode.
B7-H4-Ig, RPA110010, and murine B7-H4-Ig proteins were administered by intraperitoneal (IP) injection 3 times a week for a total of 8 doses. RPA110010 is an extracellular domain variant of B7-H4-Ig, SEQ ID NO:126. Control murine and human IgG proteins were given once a week for a total of 3 doses. […] All proteins were diluted to the desired concentration (500 μg in 500 μL, or 1 mg/mL) with sterile PBS immediately before injection. Vehicle control mice receive Amplimmune formulation buffer diluted 1:10 in PBS, with an injection volume of 500 μL.

SJL mice = experiment: PLP139-151-induced R-EAE model, clinical score and relapse; format: in vivo, mouse
Description: For PLP139-151-induced R-EAE, 6- to 7-wk-old female SJL mice were immunized s.c. with 100 μL of an emulsion containing 200 μg of M. tuberculosis H37Ra and 50 μg of […] (HSLGKWLGHPDKF) (SEQ ID NO:139) distributed over three spots on the flank. Individual animals were observed daily and clinical scores assessed in a blinded fashion on a 0-5 scale as shown in Table 11 (Miller, et al., Curr. Protocols Immulo., Chapter 12, Unit 15.1). Unless otherwise mentioned, all mice were age and sex-matched for all experiments.
Mice were randomly divided into four groups. For the disease prevention model, B7-H4-Ig or control IgG at 3 mg/kg was injected intraperitoneally (i.p.) on the same day as PLP130-151 priming. For the therapeutic model, B7-H4-Ig or control IgG at 3 mg/kg was given i.p. beginning on approximately Day 21 post PLP130-151 priming. In both cases, B7-H4-Ig was administrated, 3 times a week, for 2-4 weeks.
To determine the therapeutic benefit of B7-H4-Ig, murine B7-H4-Ig was tested in the PLP139-151-induced R-EAE mouse model both for prevention of disease (treatment begun on the same day of disease induction) and therapeutic intervention (treatment begun during the disease remission) settings (FIG. 33). In both cases the disease course was followed for about 2 months to assess clinical disease following the grading system shown in […].
Female SJL mice were first immunized with PLP139-151 peptide emulsified in CFA and then randomized into 2 groups for either prevention or therapeutic treatment. For each treatment regimen there were 2 subgroups, with one subgroup receiving Control IgG and the other subgroup receiving murine B7-H4-Ig. Both Control IgG and murine B7-H4-Ig were given at 3 mg/kg, 3 times a week for 4 weeks. Prevention treatment (FIG. 34) means that murine B7-H4-Ig or Control IgG was administered starting on the day at PLP immunization (t=0). Therapeutic treatment (FIG. 35) means that murine B7-H4-Ig or Control IgG was administered beginning on Day 21 (t=21). The data is presented as the mean clinical score over the 55 day time course with 5 mice per group, and the clinical scores and injection were conducted double blinded.
The effect of B7-H4-Ig treatment on the number of Treg cells in vivo was analyzed in this study. The effect of B7-H4-Ig on the number and phenotype of CD4^+ T cells infiltrating into the CNS following B7-H4-Ig treatment, the relevant site for activity in vivo, was determined. […] SJL mice were first immunized with PLP139-151 peptide. B7-H4-Ig treatment started during remission (Day 23). Mice received mouse Control IgG, 100 μg, or B7-H4-Ig at either 60 or 300 μg, 3 times per week for 2 weeks or 4 weeks. Half of the animals (5 mice from each group) were euthanized on Day 35, after 6 doses of B7-H4-Ig. The rest of the animals (5 mice from each group) were euthanized on Day 50, after 12 doses of B7-H4-Ig. Mouse spleens, draining lymph nodes, spinal cords and brains were collected, tissues were made into a single cell suspension and counted via the use of a hemocytometer, and analyzed for the presence of effector/memory CD4^+ T cells (CD4^+CD44^+) and Treg cells (CD4^+CD25^+FoxP3^+). Whole cerebellar and lumbar spinal cord tissue samples were snap frozen and processed as described above to analyze the number of CD4^+ and FoxP3^+ cells present within the CNS by histology.
Human B7-H4-Ig was also tested for its therapeutic efficacy in the PLP139-151-induced R-EAE mouse model. […]

**Q.** For “B7-H4-Ig: B7-H4 extracellular domain fused to Ig Fc; bare label is the human protein in Example 3, murine protein in Examples 1, 2, 5, 7-11”, which “disease scores, AA#79” value (DBA/1 mice; female DBA/1 mice, 20 mg/kg IP 3× weekly, 8 doses from Day 29, vs control groups (FIG. 7), 20 mg/kg) is on record?
**A.** Its value is “lower disease scores than mice in the control groups; also recorded: prolonged period of stable disease scores”.

**Q.** And the “clinical scores (average), R-EAE” value (SJL mice; 3 mg/kg i.p. 3 times a week for 4 weeks, preventative (t=0) and therapeutic (t=21) regimens, 0-5 scale (FIGS. 34, 35))?
**A.** The value was 0-0.5.

**Q.** What about the “disease symptoms during the acute phase of R-EAE” value (SJL mice; 1st in vivo study, treatment from the day of PLP139-151/CFA priming) of the same substance?
**A.** The value was “did not affect disease symptoms during the acute phase of R-EAE”.

**Q.** And the “mean clinical score, primary relapse” value (SJL mice; both 3 mg/kg (60 μg/dose) and 15 mg/kg (300 μg/dose), three times a week from day 23 (FIG. 46))?
**A.** The value was “significantly prevented the primary relapsing”.

**Q.** Which results are given for “Human B7-H4-Ig: human B7-H4 extracellular domain fused to hinge, CH2 and CH3 regions of human immunoglobulin Cγ1 chain; representative SEQ ID NOs:114-137”?
**A.** CIA disease score (DBA/1 mice; AA#79, Study Day 12, individual mouse (Tag#)): 1 (2×) and 0 (4×); CIA disease score (DBA/1 mice; AA#79, Study Day 18, individual mouse (Tag#)): 2 (2×) and 1 (3×) and 0; CIA disease score (DBA/1 mice; AA#79, Study Day 22, individual mouse (Tag#)): 2 (5×) and 1; CIA disease score (DBA/1 mice; AA#79, Study Day 25, individual mouse (Tag#)): 2 (3×) and 3 (2×) and 4; CIA disease score (DBA/1 mice; AA#79, Study Day 27, individual mouse (Tag#)): 3 (2×) and 5 and 4 (3×); CIA disease score (DBA/1 mice; AA#79, Study Day 29, individual mouse (Tag#)): 6 and 5 (2×) and 4 (2×) and 7; CIA disease score (DBA/1 mice; AA#79, Study Day 32, individual mouse (Tag#)): 5 (2×) and 4 (2×) and 2; CIA disease score (DBA/1 mice; AA#79, Study Day 34, individual mouse (Tag#)): 4 (2×) and 2 and 5 (2×); CIA disease score (DBA/1 mice; AA#79, Study Day 36, individual mouse (Tag#)): 4 and 5 and 1 and 6 and 3 and 12; CIA disease score (DBA/1 mice; AA#79, Study Day 39, individual mouse (Tag#)): 5 and 12 and 6 and 9 and 3 and 11; CIA disease score (DBA/1 mice; AA#79, Study Day 41, individual mouse (Tag#)): 5 (2×) and 12 and 7 and 10 (2×); CIA disease score (DBA/1 mice; AA#79, Study Day 43, individual mouse (Tag#)): 3 (2×) and 10 (2×) and 6 and 9; CIA disease score (DBA/1 mice; AA#79, Study Day 46, individual mouse (Tag#)): 4 and 9 and 10 (2×) and 11 and 3; CIA disease score (DBA/1 mice; AA#79, Study Day 48, individual mouse (Tag#)): 5 and 10 (3×) and 6 and 11; CIA disease score (DBA/1 mice; AA#79, Study Day 50, individual mouse (Tag#)): 6 (2×) and 9 (2×) and 10 and 12; CIA disease score (DBA/1 mice; AA#79, Study Day 54, individual mouse (Tag#)): 3 and 10 (2×) and 13 (2×) and 5; CIA disease score (DBA/1 mice; AA#79, Study Day 57, individual mouse (Tag#)): 5 (2×) and 11 and 10 (2×) and 12; mean clinical score, primary disease relapse (SJL mice; 5 or 25 mg/kg 3 times a week for 4 weeks from Day 23, vs Synagis (FIG. 48A)): reduction of mean clinical score; long-term relapse rate (SJL mice; 5 or 25 mg/kg 3 times a week for 4 weeks from Day 23, vs Synagis (FIG. 48B)): reduction in long-term relapse rate
